Key:
[1] = system: oil field isolated anaerobic consortium, mainly SRB; test: Biocidal efficacy (MBC) against anaerobic bacteria in contaminated salt solution; format: cell-based; conditions: 40° C., 24 hour, 10^6 to 10^7 CFU/mL
Procedure: Inside an anaerobic chamber (Bactron anaerobic chamber), a deaerated sterile salt solution (3.1183 g of NaCl, 1.3082 mg of NaHCO3, 47.70 mg of KCl, 72.00 mg of CaCl2, 54.49 mg of MgSO4, 172.28 mg of Na2SO4, 43.92 mg of Na2CO3 in 1 L water) was contaminated with an oil field isolated anaerobic consortium, mainly SRB, at final bacterial concentrations of 10^6 to 10^7 CFU/mL. The aliquots of this contaminated water were then treated with BIT, Tris Nitro, or the BIT/Tris Nitro combinations at different active concentration levels. After the mixtures were incubated at 40° C. for 24 hour, the biocidal efficacy was determined by minimum tested biocide concentration for bacteria kill in the aliquots (MBC). Table 1 summarizes the efficacy of each biocide and their blends, and the Synergy Index* of each combination.

[2] = system: Psedomonas aeruginosa ATCC 10145 and Staphylococcus aureus ATCC 6538; test: Biocidal efficacy (MBC, complete kill) against aerobic bacteria in contaminated NaCl solution; format: cell-based; conditions: 37° C., 24 hour, ~10^6 CFU/ml
Procedure: A sterile NaCl solution (0.85%) was contaminated with Psedomonas aeruginosa ATCC 10145 and Staphylococcus aureus ATCC 6538 at final bacterial concentration of ˜10^6 CFU/ml. The aliquots of this contaminated water were then treated with BIT, Tris Nitro, or the BIT/Tris Nitro combination at different active concentration levels. […] Table 2 summarizes the efficacy of each biocide and their blends, and the Synergy Index of each combination.

## O=[N+]([O-])C(CO)(CO)CO [0:1, tris(hydroxymethyl)nitromethane]
[1]; concentration of Tris Nitro at minimum tested biocide concentration for bacteria kill
  MBC (active ppm) Tris Nitro: >100 active ppm
[2]; concentration of Tris Nitro at MBC
  Dosage required for complete kill (active ppm) Tris Nitro: 25.7 active ppm

## O=c1[nH]sc2ccccc12 [1:0, 1,2-benzisothiazolin-3-one]
[1]; concentration of BIT at minimum tested biocide concentration for bacteria kill
  MBC (active ppm) BIT: 17.3 active ppm
[2]; concentration of BIT at MBC
  Dosage required for complete kill (active ppm) BIT: >25 active ppm

— patent US8722713B2, “Synergistic antimicrobial composition of 1,2-benzisothiazolin-3-one and tris(hydroxymethyl)nitromethane” (Dow Global Technologies LLC, priority 2010, dated 2014)
